Test system: MCF-7 breast cancer cells
Assay: Microarray gene expression analysis (Agilent whole human genome 4 x 44K; compound vs DMSO, LIMMA log2 fold change)
Assay type: cell-based
Conditions: Apoptosis genes

For Cn1ncc2c(N3CCOCC3)nc(-c3cccc(O)c3)nc21 [ETP-45658], the “CTNNA1 log2FC” value (Gene 1495) was 0.398, the “CTNNB1 log2FC” value (Gene 1499) was 0.236 and the “CTSB log2FC” value (Gene 1508) was -0.231. The “CTSH log2FC” value (Gene 1512) was -0.192, the “CTSL log2FC” value (Gene 1514) was 0.446 and the “CX3CR1 log2FC” value (Gene 1524) was 0.181. For the same compound, the “CYLD log2FC” value (Gene 1540) was 0.499, the “DAB2 log2FC” value (Gene 1601) was -0.232 and the “DAD1 log2FC” value (Gene 1603) was -0.542. The “DAP log2FC” value (Gene 1611) was -0.178, the “DAPK1 log2FC” value (Gene 1612) was 0.238 and the “DAPK3 log2FC” value (Gene 1613) was -0.132. For the same compound, the “DBH log2FC” value (Gene 1621) was -0.059, the “DCC log2FC” value (Gene 1630) was 0.044 and the “GADD45A log2FC” value (Gene 1647) was -0.416. The “DDIT3 log2FC” value (Gene 1649) was 2.364, the “DDX3X log2FC” value (Gene 1654) was -1.156 and the “DDX5 log2FC” value (Gene 1655) was -0.656. For the same compound, the “DFFA log2FC” value (Gene 1676) was -0.316, the “DFNA5 log2FC” value (Gene 1687) was 0.156 and the “DHCR24 log2FC” value (Gene 1718) was -0.643. The “DHODH log2FC” value (Gene 1723) was -0.210, the “NQO1 log2FC” value (Gene 1728) was 0.303 and the “DLX1 log2FC” value (Gene 1745) was -0.429. For the same compound, the “DNASE1 log2FC” value (Gene 1773) was 0.250, the “DNASE1L3 log2FC” value (Gene 1776) was -0.141 and the “DNASE2 log2FC” value (Gene 1777) was 0.536. For the same compound, the “DOCK1 log2FC” value (Gene 1793) was 0.462, the “DPEP1 log2FC” value (Gene 1800) was -0.068 and the “ATN1 log2FC” value (Gene 1822) was -0.501. For the same compound, the “DSG1 log2FC” value (Gene 1828) was -0.456, the “DSG2 log2FC” value (Gene 1829) was 0.346 and the “DSG3 log2FC” value (Gene 1830) was -0.092. For the same compound, the “TSC22D3 log2FC” value (Gene 1831) was 0.689, the “DSP log2FC” value (Gene 1832) was 0.613 and the “DUSP1 log2FC” value (Gene 1843) was -0.931. The “DUSP2 log2FC” value (Gene 1844) was -2.124, the “DUSP6 log2FC” value (Gene 1848) was -2.175 and the “E2F1 log2FC” value (Gene 1869) was -0.356. The “E2F2 log2FC” value (Gene 1870) was -0.581, the “ECT2 log2FC” value (Gene 1894) was 1.058 and the “EDN1 log2FC” value (Gene 1906) was 0.169. For the same compound, the “EDNRA log2FC” value (Gene 1909) was -0.061, the “EDNRB log2FC” value (Gene 1910) was -0.075 and the “EEF1A2 log2FC” value (Gene 1917) was -0.382. For the same compound, the “EFNA5 log2FC” value (Gene 1946) was -0.086, the “EGFR log2FC” value (Gene 1956) was 0.311 and the “EGR1 log2FC” value (Gene 1958) was -3.897. For the same compound, the “EGR2 log2FC” value (Gene 1959) was -0.340, the “EPHA2 log2FC” value (Gene 1969) was -2.195 and the “EIF5A log2FC” value (Gene 1984) was -0.137. For the same compound, the “ENDOG log2FC” value (Gene 2021) was -0.357, the “EP300 log2FC” value (Gene 2033) was -0.215 and the “EPHA7 log2FC” value (Gene 2045) was -0.083. The “CLN8 log2FC” value (Gene 2055) was -0.161, the “EPO log2FC” value (Gene 2056) was -0.146 and the “ERBB3 log2FC” value (Gene 2065) was 0.557. For the same compound, the “ERBB4 log2FC” value (Gene 2066) was 0.141, the “ERCC2 log2FC” value (Gene 2068) was -0.566 and the “ERCC3 log2FC” value (Gene 2071) was -0.084. For the same compound, the “ERCC5 log2FC” value (Gene 2073) was 0.896, the “ERCC6 log2FC” value (Gene 2074) was 0.369 and the “ERN1 log2FC” value (Gene 2081) was -0.168. For the same compound, the “ESR1 log2FC” value (Gene 2099) was -0.121, the “ESR2 log2FC” value (Gene 2100) was -0.067 and the “ETS1 log2FC” value (Gene 2113) was -0.590. The “EYA2 log2FC” value (Gene 2139) was -0.248, the “F2R log2FC” value (Gene 2149) was 0.260 and the “F3 log2FC” value (Gene 2152) was -0.164. The “PTK2B log2FC” value (Gene 2185) was 0.101, the “FCER1G log2FC” value (Gene 2207) was -0.662 and the “FGD1 log2FC” value (Gene 2245) was -0.405. For the same compound, the “FGF4 log2FC” value (Gene 2249) was -0.171, the “FGF8 log2FC” value (Gene 2253) was -0.131 and the “FGF10 log2FC” value (Gene 2255) was 0.033. For the same compound, the “FGFR1 log2FC” value (Gene 2260) was -0.387, the “FGFR3 log2FC” value (Gene 2261) was -0.382 and the “FGFR2 log2FC” value (Gene 2263) was 1.543. The “FHIT log2FC” value (Gene 2272) was -0.370, the “FHL2 log2FC” value (Gene 2274) was -0.173 and the “FOXC1 log2FC” value (Gene 2296) was -0.876. The “FOXC2 log2FC” value (Gene 2303) was -0.613, the “FLT3 log2FC” value (Gene 2322) was 0.165 and the “FLT4 log2FC” value (Gene 2324) was -0.341. For the same compound, the “FNTA log2FC” value (Gene 2339) was 1.051, the “FXN log2FC” value (Gene 2395) was -0.579 and the “FRZB log2FC” value (Gene 2487) was 0.110. For the same compound, the “FYN log2FC” value (Gene 2534) was -0.127, the “G6PD log2FC” value (Gene 2539) was -0.236 and the “GABRA5 log2FC” value (Gene 2558) was 0.036. For the same compound, the “GABRB2 log2FC” value (Gene 2561) was -0.066, the “GABRB3 log2FC” value (Gene 2562) was 0.054 and the “GAS1 log2FC” value (Gene 2619) was 0.711. The “GAS2 log2FC” value (Gene 2620) was 0.183, the “GATA1 log2FC” value (Gene 2623) was -0.041 and the “GATA3 log2FC” value (Gene 2625) was -0.140. For the same compound, the “GDNF log2FC” value (Gene 2668) was 0.348, the “B4GALT1 log2FC” value (Gene 2683) was 0.129 and the “GJA1 log2FC” value (Gene 2697) was -0.390. The “GCLC log2FC” value (Gene 2729) was 1.033, the “GLI3 log2FC” value (Gene 2737) was 0.306 and the “GLO1 log2FC” value (Gene 2739) was 0.300. The “GML log2FC” value (Gene 2765) was -0.233, the “GNB1 log2FC” value (Gene 2782) was -0.075 and the “GNGT1 log2FC” value (Gene 2792) was 0.035. The “GNRH1 log2FC” value (Gene 2796) was 0.243, the “SFN log2FC” value (Gene 2810) was -1.182 and the “GPLD1 log2FC” value (Gene 2822) was -0.136. For the same compound, the “CXCR3 log2FC” value (Gene 2833) was -0.730, the “GRK5 log2FC” value (Gene 2869) was 0.091 and the “MKNK2 log2FC” value (Gene 2872) was -0.750. For the same compound, the “GPX1 log2FC” value (Gene 2876) was 0.224, the “GRID2 log2FC” value (Gene 2895) was -0.054 and the “GRIK2 log2FC” value (Gene 2898) was 0.090. The “GRIK5 log2FC” value (Gene 2901) was -0.286, the “GRIN1 log2FC” value (Gene 2902) was -0.518 and the “GRIN2A log2FC” value (Gene 2903) was -0.037. The “NR3C1 log2FC” value (Gene 2908) was 1.303, the “GRM4 log2FC” value (Gene 2914) was -0.041 and the “PDIA3 log2FC” value (Gene 2923) was -0.131. For the same compound, the “GSK3A log2FC” value (Gene 2931) was -0.246, the “GSK3B log2FC” value (Gene 2932) was -0.607 and the “GSN log2FC” value (Gene 2934) was -0.206. The “GSTP1 log2FC” value (Gene 2950) was 0.120, the “MSH6 log2FC” value (Gene 2956) was 0.235 and the “GZMH log2FC” value (Gene 2999) was -0.228. For the same compound, the “GZMA log2FC” value (Gene 3001) was -0.081, the “GZMB log2FC” value (Gene 3002) was -0.203 and the “GZMM log2FC” value (Gene 3004) was -0.523. For the same compound, the “H1F0 log2FC” value (Gene 3005) was 0.826, the “HCK log2FC” value (Gene 3055) was -0.046 and the “HDAC1 log2FC” value (Gene 3065) was -0.487. For the same compound, the “HDAC2 log2FC” value (Gene 3066) was 0.164, the “HELLS log2FC” value (Gene 3070) was 0.388 and the “NCKAP1L log2FC” value (Gene 3071) was 0.079. The “HGF log2FC” value (Gene 3082) was -0.369, the “NRG1 log2FC” value (Gene 3084) was -1.147 and the “HIC1 log2FC” value (Gene 3090) was -0.118. The “HIF1A log2FC” value (Gene 3091) was 0.141, the “HIP1 log2FC” value (Gene 3092) was -0.264 and the “HINT1 log2FC” value (Gene 3094) was 0.229. For the same compound, the “HK2 log2FC” value (Gene 3099) was -1.193, the “HMGB1 log2FC” value (Gene 3146) was 0.513 and the “HMGB2 log2FC” value (Gene 3148) was 1.232. For the same compound, the “HMGCR log2FC” value (Gene 3156) was 0.305, the “HMOX1 log2FC” value (Gene 3162) was 1.167 and the “NR4A1 log2FC” value (Gene 3164) was -0.616. For the same compound, the “HOXA5 log2FC” value (Gene 3202) was 0.402, the “HOXA13 log2FC” value (Gene 3209) was 0.081 and the “HRAS log2FC” value (Gene 3265) was -0.664. For the same compound, the “HRG log2FC” value (Gene 3273) was 0.066, the “PRMT2 log2FC” value (Gene 3275) was 0.361 and the “HSPA1A log2FC” value (Gene 3303) was -2.764. The “HSPA5 log2FC” value (Gene 3309) was -0.358, the “HSPB1 log2FC” value (Gene 3315) was -0.158 and the “HSP90AA1 log2FC” value (Gene 3320) was 1.066. For the same compound, the “HSP90AB1 log2FC” value (Gene 3326) was -0.153.
